The source of these data is BindingDB's records for patent US20250171447 (Merck Sharp & Dohme, 2025).

For one assay, the target named is Adenosine receptor A2a (Homo sapiens, UniProt P29274). Nature of the assay: A2A Binding Affinity Using SPA.
The next assay concerns the target T1, Adenosine receptor A2b (Homo sapiens, UniProt P29275).
T1 sequence (P29275 whole entry): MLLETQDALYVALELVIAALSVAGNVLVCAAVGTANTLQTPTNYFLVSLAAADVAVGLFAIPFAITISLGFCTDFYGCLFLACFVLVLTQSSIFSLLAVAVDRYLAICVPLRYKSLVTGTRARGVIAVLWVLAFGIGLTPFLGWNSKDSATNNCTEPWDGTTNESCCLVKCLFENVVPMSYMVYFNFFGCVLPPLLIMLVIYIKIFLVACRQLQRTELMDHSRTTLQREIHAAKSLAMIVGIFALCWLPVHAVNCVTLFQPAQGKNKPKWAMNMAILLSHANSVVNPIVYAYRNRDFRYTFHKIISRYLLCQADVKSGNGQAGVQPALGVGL
Kind of assay: A2B Binding Affinity Assay.

Chain of Adenosine receptor A2a (P29274 whole entry): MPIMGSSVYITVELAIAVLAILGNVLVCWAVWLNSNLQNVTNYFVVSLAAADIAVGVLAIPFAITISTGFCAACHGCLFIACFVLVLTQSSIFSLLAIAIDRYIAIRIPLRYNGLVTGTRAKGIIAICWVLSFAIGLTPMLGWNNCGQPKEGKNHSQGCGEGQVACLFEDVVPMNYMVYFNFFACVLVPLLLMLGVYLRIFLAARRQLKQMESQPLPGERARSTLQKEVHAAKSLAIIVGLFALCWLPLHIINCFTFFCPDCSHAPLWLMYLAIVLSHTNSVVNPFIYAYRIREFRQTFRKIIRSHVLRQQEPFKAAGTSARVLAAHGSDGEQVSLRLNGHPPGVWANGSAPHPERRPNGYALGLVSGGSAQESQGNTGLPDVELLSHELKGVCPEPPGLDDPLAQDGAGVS

As for `COc1cc(F)cc2c1nc(N)n1nc(C3CC3(F)c3ccccc3)nc21` (centres undefined) [US20250171447, Ex-29], the IC50 (as a rule, the concentration at which inhibition is half-maximal) came to 3.5 nM at Adenosine receptor A2a and 45 nM at Adenosine receptor A2b.

`COc1cc(F)cc2c1nc(N)n1nc(C3CC3c3ccc(F)cc3)nc21` (centres undefined) [US20250171447, Ex-31]: the 50% inhibitory concentration (IC50) at Adenosine receptor A2a came to 44.2 nM; on Adenosine receptor A2b, 27.3 nM.

On to `COc1cc(F)cc2c1nc(N)n1nc(C3CC3(F)c3ccccc3)nc21` (centres undefined) [US20250171447, Ex-32], for which the IC50 at Adenosine receptor A2a worked out at 377 nM; at Adenosine receptor A2b it was 601 nM.

With `COc1cc(F)cc2c1nc(N)n1nc(C3CC3(F)c3ccccc3)nc21` (centres undefined) [US20250171447, Ex-33], the IC50 at Adenosine receptor A2a amounted to 472 nM; at Adenosine receptor A2b, 62.4 nM.

In the case of `COc1cccc2c1nc(N)n1nc(C3CC3CO)nc21` (centres undefined) [US20250171447, Ex-35], the values for the half-maximal inhibitory concentration (IC50) at Adenosine receptor A2a and at Adenosine receptor A2b were 7.3 nM and 105 nM, respectively.

On to `COc1cccc2c1nc(N)n1nc(C3CC3CO)nc21` (centres undefined) [US20250171447, Ex-36], for which the IC50 stood at 20.5 nM on Adenosine receptor A2a and 805 nM on Adenosine receptor A2b.

Regarding `COc1cc(F)cc2c1nc(N)n1nc(C3CC3(F)c3ccccc3)nc21` (centres undefined) [US20250171447, Ex-39], the IC50 at Adenosine receptor A2a worked out at 0.6 nM; on Adenosine receptor A2b it was 71.9 nM.

With `COc1cc(F)cc2c1nc(N)n1nc([C@H]3C[C@H](c4ccc(C(C)(C)O)cn4)C3)nc21` [US20250171447, Ex-44], the IC50 at Adenosine receptor A2a was 2.4 nM.

Turning to `COc1cc(F)cc2c1nc(N)n1nc([C@H]3C[C@@H](c4ccc(C(C)(C)O)cn4)C3)nc21` [US20250171447, Ex-45], the IC50 was 1.6 nM at Adenosine receptor A2a and 6.2 nM at Adenosine receptor A2b.

As for `COc1cccc2c1nc(N)n1nc([C@H]3C[C@H](c4ccc(C(C)(C)O)nc4)C3)nc21` [US20250171447, Ex-53], the 50% inhibitory concentration (IC50) on Adenosine receptor A2a was determined as 8.8 nM.

As to `COc1cccc2c1nc(N)n1nc([C@H]3C[C@@H](c4ccc(C(C)(C)O)nc4)C3)nc21` [US20250171447, Ex-54], the IC50 at Adenosine receptor A2a amounted to 1.1 nM; at Adenosine receptor A2b, 6.9 nM.

`COc1ccc2c(c1)nc(N)n1nc([C@H]3C[C@@H](c4ccc(CC(C)(C)O)cn4)C3)nc21` [US20250171447, Ex-55] displayed a half-inhibitory concentration (IC50) at Adenosine receptor A2a of 15.5 nM. This counts as double-digit nanomolar.

The molecule `COc1ccc2c(c1)nc(N)n1nc([C@H]3C[C@H](c4ccc(CC(C)(C)O)cn4)C3)nc21` [US20250171447, Ex-56] gave an IC50 at Adenosine receptor A2a of 17.8 nM. This IC50 and that of the molecule before are within 1.5-fold of each other.

For `COc1ccc2c(c1)nc(N)n1nc([C@H]3C[C@@H](c4cnc(C(C)(C)O)cn4)C3)nc21` [US20250171447, Ex-57], the IC50 on Adenosine receptor A2a was 47.4 nM.

On Adenosine receptor A2a, `COc1ccc2c(c1)nc(N)n1nc([C@H]3C[C@H](c4cnc(C(C)(C)O)cn4)C3)nc21` [US20250171447, Ex-58] had an IC50 of 136 nM. This IC50 lies about 2.9-fold higher than the previous one.

On Adenosine receptor A2a, `COc1ccc2c(c1)nc(N)n1nc([C@H]3C[C@@H](c4ccc(C(C)(C)O)cn4)C3)nc21` [US20250171447, Ex-59] displayed an IC50 of 5.7 nM.

For `COc1ccc2c(c1)nc(N)n1nc([C@H]3C[C@H](c4ccc(C(C)(C)O)cn4)C3)nc21` [US20250171447, Ex-60], the concentration for half-maximal inhibition (IC50) on Adenosine receptor A2a is 7.9 nM.

In turn, `COc1ccc2c(c1)nc(N)n1nc([C@H]3C[C@H](c4ncc(C(C)(C)O)cn4)C3)nc21` [US20250171447, Ex-61] registered a 50% inhibitory concentration (IC50) at Adenosine receptor A2a of 42.6 nM. Against the preceding molecule, the IC50 is about 5.4-fold higher.

At Adenosine receptor A2a, `COc1ccc2c(c1)nc(N)n1nc([C@H]3C[C@@H](c4ncc(C(C)(C)O)cn4)C3)nc21` [US20250171447, Ex-62] had an IC50 of 107 nM. This IC50 is about 2.5-fold higher than that of the molecule before.

In the case of `CC(C)(O)c1ccc([C@H]2C[C@@H](c3nc4c5cc(F)cc(F)c5nc(N)n4n3)C2)nc1` [US20250171447, Ex-63], the figures for the half-maximal inhibitory concentration (IC50) on Adenosine receptor A2a and at Adenosine receptor A2b were 7 nM and 0.4 nM, respectively.

`CC(C)(O)c1ccc([C@H]2C[C@H](c3nc4c5cc(F)cc(F)c5nc(N)n4n3)C2)nc1` [US20250171447, Ex-64]: the values for the IC50 at Adenosine receptor A2a and on Adenosine receptor A2b were 16 nM and 1.7 nM, respectively.

Take `COc1cccc2c1nc(N)n1nc([C@H]3C[C@@H](c4ccc(CC(C)(C)O)cn4)C3)nc21` [US20250171447, Ex-65]: the concentration for half-maximal inhibition (IC50) on Adenosine receptor A2a was determined as 2.1 nM.

Molecule `COc1cccc2c1nc(N)n1nc([C@H]3C[C@H](c4ccc(CC(C)(C)O)cn4)C3)nc21` [US20250171447, Ex-66] returned a 50% inhibitory concentration (IC50) at Adenosine receptor A2a of 2 nM.

The molecule `COc1cccc2c1nc(N)n1nc([C@H]3C[C@H](c4ccc(C(C)(C)N)nc4)C3)nc21` [US20250171447, Ex-84] gave an IC50 on Adenosine receptor A2a of 8.2 nM.

Take `COc1cccc2c1nc(N)n1nc(C3CC(c4ncc(C(C)(C)N)cc4Cl)C3)nc21` (centres undefined) [US20250171447, Ex-87]: the 50% inhibitory concentration (IC50) turned out to be 0.8 nM on Adenosine receptor A2a and 2.7 nM on Adenosine receptor A2b.

Turning to `COc1cccc2c1nc(N)n1nc([C@H]3C[C@H](c4ccc(C5(O)CC(F)(F)C5)cn4)C3)nc21` [US20250171447, Ex-103], on Adenosine receptor A2a, the IC50 was 1.1 nM.

At Adenosine receptor A2a, `COc1cccc2c1nc(N)n1nc(C3CC(c4ccc(C5(C#N)CNC5)nc4)C3)nc21` (centres undefined) [US20250171447, Ex-116] registered an IC50 of 3.1 nM.

On to `Cc1nc(C(C)(C)N)cnc1[C@H]1C[C@@H](c2nc3c4cccc(Cl)c4nc(N)n3n2)C1` [US20250171447, Ex-128], for which the half-inhibitory concentration (IC50) on Adenosine receptor A2a was 52 nM. Against the preceding molecule, the IC50 is about 17-fold higher.

`Cc1nc(C(C)(C)N)cnc1[C@H]1C[C@H](c2nc3c4cc(F)cc(F)c4nc(N)n3n2)C1` [US20250171447, Ex-129]: the IC50 at Adenosine receptor A2a came out at 4.5 nM.

With `Cc1nc(C(C)(C)N)cnc1[C@H]1C[C@@H](c2nc3c4cc(F)cc(F)c4nc(N)n3n2)C1` [US20250171447, Ex-130], the concentration for half-maximal inhibition (IC50) at Adenosine receptor A2a amounted to 89.2 nM.

As to `COc1cc2nc(N)n3nc([C@H]4C[C@H](c5ncc(C(C)(C)N)nc5C)C4)nc3c2cc1F` [US20250171447, Ex-131], the IC50 at Adenosine receptor A2a amounted to 2.5 nM.

At Adenosine receptor A2a, `COc1cc2nc(N)n3nc([C@H]4C[C@@H](c5ncc(C(C)(C)N)nc5C)C4)nc3c2cc1F` [US20250171447, Ex-132] showed an IC50 of 37.2 nM.
